This is an account of results in patent publication US20150031686A1, “PHENYL-OXAZOLYL DERIVATIVES, PREPARATION METHOD THEREOF, AND RELATED APPLICATION OF THE PHENYL-OXAZOLYL DERIVATIVES AS AN IMPDH INHIBITOR” (INSTITUTE OF MEDICINAL BIOTECHNOLOGY, CHINESE ACADEMY OF …, priority 2012, published 2015).

Values after ≈ are worked out from the molar mass of the structure shown.

One assay has as its system Coxsackie virus type B3 (COX-B3). The assay can be described thus: Anti-Coxsackie virus type B3 (COX-B3) activity, CPE in Vero cells. In kind it is cell-based. Conditions: Reed-Muench. Here is the method: (§1) With Vero (African green monkey kidney) cells as viral hosts, inhibitory effects of the compounds of present invention on the grades of pathological lesions by coxsackievirus B3 (COX-B3), B6 (COX-B6) viruses in Vero cells were determined. The measured results of viral inhibitory activity of the compounds are shown in Table 3 and Table 4; wherein RBV is the control drug ribavirin. The inhibitory activities of the measured compounds against coxsackievirus B3, B6 were stronger than the control.
(§2) Screening of Anti-B3, B6 Type Coxsackie Viruses (COX-B3, COX-B6) Activity of the Samples
(§3) Prepare stock solutions of COX-B3 (or COX-B6) virus strains as well as tested compounds in DMSO before use. Before tests, dilute the stock solution with culture solution into a certain concentration and then dilute 3 times to make a total of eight dilutions. Use ribavirin (RBV) as positive control. Test procedures are as follows: seed Vero cells into 96-well culture plates, infect with 10^−5 Coxsackie virus of B3 (or B6) type, 24 hours later; adsorb subsequently for 2 hours, then discard the virus solution, add in the sample compounds and the positive control according to the abovementioned dilutions, set cell control wells and virus control wells simultaneously. When the cytopathic effect (CPE) of cells in the virus control wells reach 4+, observe CPE of the cells in each group. Use Reed-Muench method to calculate 50% inhibitory concentration (IC50) of the sample compounds against coxsackie virus B3 (or B6) type.
As a reminder, the IC50 is the concentration needed to halve the response being measured. A high value points to a need for much substance. Turning to `COc1cc(NC/C=C(/C)CCC=C(C)C)ccc1-c1cnco1` [Compound 71, N-(3,7-dimethyl-octa-2,6-dienyl)-3-methoxy-4-(oxazol-5-yl) aniline], the IC50 was found to be 1.25 µg/mL (≈ 3.83 µM).
Still for that read-out and setting: the same measure for `COc1cc(NCc2cccnc2Cl)ccc1-c1cnco1` [Compound 59, N-(2-chloropyridin-3-ylmethyl)-3-methoxy-4-(oxazol-5-yl) aniline]: 1.9 µg/mL (≈ 6.02 µM).
On the same count and under the same terms, under `Clc1cc(NCc2cccc3c2sc2ccccc23)ccc1-c1cnco1` [Compound 90, N-dibenzothien-4-ylmethyl-3-chloro-4-oxazol-5-yl aniline] stands 0.26 µg/mL (≈ 0.665 µM); under `COc1ccc(-c2cnco2)cc1NCC1CCOCC1` [Compound 37, N-(tetrahydropyran-4-ylmethyl)-2-methoxy-5-oxazol-5-yl aniline], 0.63 µg/mL (≈ 2.18 µM); under `COc1cc(NCc2c3ccccc3nc3ccc(C)cc23)ccc1-c1cnco1` [Compound 94, N-(2-methylacridine-9-methyl)-3-methoxy-4-(oxazol-5-yl) aniline], 0.68 µg/mL (≈ 1.72 µM).
Still for that read-out and setting: under `COc1ccc(-c2cnco2)cc1NCc1cccnn1` [Compound 38, N-(pyridazin-3-yl-methyl)-2-methoxy-5-oxazol-5-yl aniline] stands 0.88 µg/mL (≈ 3.12 µM).
Turning to `COc1cc(NCCc2nnc3ccccc3c2Cl)ccc1-c1cnco1` [Compound 81, N-[2-(4-chlorocinnolin-3-yl)-ethyl]-3-methoxy-4-(oxazol-5-yl) aniline], the IC50 is 0.29 µg/mL (≈ 0.761 µM).
Still for that read-out and setting: the same measure for `COc1ccc(-c2cnco2)cc1NCc1csc(Br)c1` [Compound 35, N-(5-bromothien-3-ylmethyl)-2-methoxy-5-(oxazol-5-yl) aniline]: 0.57 µg/mL (≈ 1.56 µM); for `COc1ccc(-c2cnco2)cc1NCc1ccc(CBr)s1` [Compound 25, N-(5-bromomethylthien-2-ylmethyl)-2-methoxy-5-(oxazol-5-yl) aniline]: 0.53 µg/mL (≈ 1.4 µM); for `COc1cc(CNCc2ccc(Cl)s2)ccc1-c1cnco1` [Compound 77, N-(5-chlorothien-2-ylmethyl)-3-methoxy-4-(oxazol-5-yl) benzylamine]: 0.35 µg/mL (≈ 1.05 µM).
The same measure, in the same setting: under `COc1cc(N(C)Cc2csc(C)c2)ccc1-c1cnco1` [Compound 12, N-methyl-N-(5-methylthien-3-ylmethyl)-3-methoxy-4-(oxazol-5-yl) aniline] stands 0.23 µg/mL (≈ 0.732 µM).
The compound `COc1cc(NCc2csc(-c3ccccc3)c2)ccc1-c1cnco1` [Compound 16, N-(5-phenylthien-3-ylmethyl)-3-methoxy-4-(oxazol-5-yl) aniline] returned an IC50 of 0.45 µg/mL (≈ 1.24 µM).
Still for that read-out and setting: under `COc1ccc(-c2cnco2)cc1NCc1c(C)noc1C` [Compound 23, N-(3,5-dimethylisoxazol-4-ylmethyl)-2-methoxy-5-(oxazol-5-yl) aniline] stands 0.76 µg/mL (≈ 2.54 µM); under `COc1cc(-c2cnco2)c(NCc2ccnc3ccccc23)cc1O` [Compound 58, 2-methoxy-4-(oxazol-5-yl)-5-[(quinolin-4-ylmethyl)-amino] phenol], 3.22 µg/mL (≈ 9.27 µM).
`C#CCN(Cc1cc(CC)sc1C)c1ccc(-c2cnco2)c(OC)c1` [Compound 13, N-(5-ethyl-2-methylthien-3-ylmethyl)-N-(3-methoxy-4-oxazole-5-phenyl) propyn-2-ylamine]: the “IC50, anti-Coxsackie virus type B3 (COX-B3)” value is 0.30 µg/mL (≈ 0.819 µM).
On to `COc1cc(NN=C(C#N)C#N)ccc1-c1cnco1` [Compound 66], for which the IC50 came to 1.43 µg/mL (≈ 5.35 µM).
`NC(=O)c1ncn([C@@H]2O[C@H](CO)[C@@H](O)[C@H]2O)n1` [RBV, ribavirin, reference compound]: the IC50 was determined as 222 µg/mL (≈ 910 µM).
Still for that read-out and setting: under `COc1cc(NCc2cccn2C)ccc1-c1cnco1` [Compound 51, N-(1-methyl-1H-pyrrol-2-ylmethyl)-3-methoxy-4-(oxazol-5-yl) aniline] stands 2.47 µg/mL (≈ 8.72 µM); under `COc1ccc(-c2cnco2)cc1NCc1ccc(CCl)s1` [Compound 24, N-(5-chloromethylthien-2-ylmethyl)-2-methoxy-5-(oxazol-5-yl) aniline], 0.57 µg/mL (≈ 1.7 µM); under `COc1cc(NCc2cncn2C)ccc1-c1cnco1` [Compound 17, N-(1-methyl-1H-imidazol-5-ylmethyl)-3-methoxy-4-(oxazol-5-yl) aniline], 2.56 µg/mL (≈ 9 µM).
The same measure, in the same setting: the same measure for `COc1cc(NCc2c(Cl)nc(Cl)nc2Cl)ccc1-c1cnco1` [Compound 43, N-(2,4,6-trichloropyrimidin-5-ylmethyl)-3-methoxy-4-(oxazol-5-yl) aniline]: 1.03 µg/mL (≈ 2.67 µM); for `COc1cc(NCc2ncc(Cl)nc2Cl)ccc1-c1cnco1` [Compound 44, N-(3,5-dichloroperazin-2-ylmethyl)-3-methoxy-4-(oxazol-5-yl) aniline]: 0.69 µg/mL (≈ 1.96 µM); for `COc1cc(NCc2ccc(N3CCC(O)CC3)s2)ccc1-c1cnco1` [Compound 103]: 0.4 µg/mL (≈ 1.04 µM).
Still for that read-out and setting: under `COc1cc(NCc2ccc(SC)s2)ccc1-c1cnco1` [Compound 102, N-(5-methylthiothien-2-ylmethyl)-3-methoxy-4-(oxazol-5-yl) aniline] stands 0.35 µg/mL (≈ 1.05 µM).
Compound `COc1cc(NCc2c3ccccc3cc3ccccc23)ccc1-c1cnco1` [Compound 95, N-(anthracen-9-ylmethyl) 3-methoxy-4-(oxazol-5-yl) aniline] returned an IC50 of 0.55 µg/mL (≈ 1.45 µM). This IC50 is about 1.6-fold higher than that of the compound before.
On the same count and under the same terms, the same measure for `COc1cc(NCc2csc(Cl)c2)ccc1-c1cnco1` [Compound 14, N-(5-chlorothien-3-ylmethyl)-3-methoxy-4-(oxazol-5-yl) aniline]: 0.44 µg/mL (≈ 1.37 µM); for `COc1cc(NS(=O)(=O)c2cc([N+](=O)[O-])c(Cl)s2)ccc1-c1cnco1` [Compound 99, N-(5-chloro-4-nitro-thien-2-ylsulfonyl)-3-methoxy-4-oxazole-5-yl aniline]: 0.78 µg/mL (≈ 1.88 µM).
In turn, `COc1ccc(-c2cnco2)cc1N` [Compound 67, 2-methoxy-5-(oxazol-5-yl) aniline] gave an IC50 of 1.88 µg/mL (≈ 9.88 µM). This IC50 is about 2.4-fold higher than that of the compound before.
Still for that read-out and setting: under `COc1cc(NCc2ccc3c(c2)Sc2ccccc2N3C)ccc1-c1cnco1` [Compound 88, N-(10-methyl-10H-phenothiazin-3-ylmethyl)-3-methoxy-4-oxazol-5-yl aniline] stands 0.36 µg/mL (≈ 0.866 µM).
The same measure, in the same setting: the same measure for `CCc1sc(CNc2ccc(-c3cnco3)c(OC)c2)cc1Br` [Compound 97, N-(4-bromo-5-ethylthien-2-ylmethyl) 3-methoxy-4-(oxazol-5-yl) aniline]: 0.23 µg/mL (≈ 0.585 µM).
The same measure, in the same setting: the same measure for `COc1cc(NCCc2ccc(C)s2)ccc1-c1cnco1` [Compound 72, N-[2-(5-methylthien-2-yl)-ethyl]-3-methoxy-4-(oxazol-5-yl) aniline]: 0.44 µg/mL (≈ 1.4 µM); for `COc1cc(NCCc2cc3cc(Cl)ccc3s2)ccc1-c1cnco1` [Compound 82, N-[2-(5-chlorobenzathien-2-yl)-ethyl]-3-methoxy-4-(oxazol-5-yl) aniline]: 0.33 µg/mL (≈ 0.857 µM).
For the compound `COc1ccc(-c2cnco2)cc1NCc1csc(Cl)c1` [Compound 34, N-(5-chlorothien-3-ylmethyl)-2-methoxy-5-(oxazol-5-yl) aniline], the concentration for half-maximal inhibition (IC50) came out at 0.57 µg/mL (≈ 1.78 µM).
Still for that read-out and setting: under `COc1cc(CNCc2csc3ccccc23)ccc1-c1cnco1` [Compound 85, N-(benzothien-3-ylmethyl)-3-methoxy-4-(oxazol-5-yl) benzylamine] stands 0.44 µg/mL (≈ 1.26 µM); under `COc1cc(CNCc2ccc(C)s2)ccc1-c1cnco1` [Compound 76, N-(5-methylthien-2-ylmethyl)-3-methoxy-4-(oxazol-5-yl) benzylamine], 0.24 µg/mL (≈ 0.763 µM); under `COc1cc(NC/C=C/c2ccoc2)ccc1-c1cnco1` [Compound 105, N-(furan-3-ylpropen-1-yl)-3-methoxy-4-oxazol-5-yl aniline], 1.23 µg/mL (≈ 4.15 µM).
On the same count and under the same terms, the same measure for `COc1ccc(-c2cnco2)cc1NCC1CCN(C)CC1` [Compound 33, N-(2-methoxy-5-oxazol-5-ylphenyl)-1-methylpiperidin-4-yl methylamine]: 0.64 µg/mL (≈ 2.12 µM); for `Clc1cc(CNCc2cccc3nsnc23)ccc1-c1cnco1` [Compound 91, N-(benzo[1,2,5]-thiadiazol-4-ylmethyl)-3-chloro-4-oxazol-5-yl benzylamine]: 0.28 µg/mL (≈ 0.785 µM); for `COc1cc(NCCCS(=O)(=O)O)ccc1-c1cnco1` [Compound 70, 3-[3-methoxy-4-(oxazol-5-yl)-anilino]-1-propanesulfonic acid]: 155 µg/mL (≈ 497 µM).
Still for that read-out and setting: the same measure for `COc1ccc(-c2cnco2)cc1NCc1c(C)nn(C)c1Cl` [Compound 27, N-(5-chloro-1,3-dimethyl-1H-pyrazol-4-ylmethyl)-2-methoxy-5-(oxazol-5-yl) aniline]: 1.47 µg/mL (≈ 4.42 µM).
As for `COc1cc(NCc2cccc3c2oc2ccccc23)ccc1-c1cnco1` [Compound 75, N-(dibenzofuran-4-ylmethyl)-3-methoxy-4-(oxazol-5-yl) aniline], the midpoint of inhibition, the IC50, lay at 0.45 µg/mL (≈ 1.21 µM).
In turn, `COc1ccc(-c2cnco2)cc1NCc1ccc(-c2cccc(Cl)c2)o1` [Compound 46, N-[5-(3-chlorophenyl)-furan-2-ylmethyl]-2-methoxy-5-(oxazol-5-yl) aniline] registered an IC50 of 0.76 µg/mL (≈ 2 µM).
As for `COc1ccc(-c2cnco2)cc1/N=C/c1cc(Cl)cs1` [Compound 29, N-(4-chlorothien-2-ylmethylene)-2-methoxy-5-(oxazol-5-yl)-aniline], the midpoint of inhibition, the IC50, lay at 10.7 µg/mL (≈ 33.5 µM). This IC50 lies about 14-fold higher than the previous one.

In a further assay the test system is Coxsackie virus type B6 (COX-B6). The assay can be described thus: Anti-Coxsackie virus type B6 (COX-B6) activity, CPE in Vero cells. In kind it is cell-based. Particulars: Reed-Muench. On the procedure:
as §1, §2, §3
Regarding `COc1cc(NC/C=C(/C)CCC=C(C)C)ccc1-c1cnco1` [Compound 71, N-(3,7-dimethyl-octa-2,6-dienyl)-3-methoxy-4-(oxazol-5-yl) aniline], the 50% inhibitory concentration (IC50) is greater than 0.82 µg/mL.
On the same count and under the same terms, the same measure for `COc1cc(NCc2cccnc2Cl)ccc1-c1cnco1` [Compound 59, N-(2-chloropyridin-3-ylmethyl)-3-methoxy-4-(oxazol-5-yl) aniline]: 1.05 µg/mL (≈ 3.33 µM).
On the same count and under the same terms, the same measure for `COc1cc(NN=C(C#N)C#N)ccc1-c1cnco1` [Compound 66]: 4.28 µg/mL (≈ 16 µM).
On the same count and under the same terms, under `NC(=O)c1ncn([C@@H]2O[C@H](CO)[C@@H](O)[C@H]2O)n1` [RBV, ribavirin, reference compound] stands 222 µg/mL (≈ 910 µM).
